Reference: ChEMBL document CHEMBL3739317, “Design of new phenothiazine-thiadiazole hybrids via molecular hybridization approach for the development of potent antitubercular agents” (Eur J Med Chem, 2015)
In brackets after ≈: the same amount, converted by molar mass. Activity calls are given as the source filed them. The rule behind the calls is not given here.

Experiments:
[1] = tested on: Staphylococcus aureus; test: Antibacterial activity against Staphylococcus aureus at 50 ug/ml after 18 to 24 hrs by disc diffusion method; type: functional; conditions: for zone of inhibition at 50 µg/mL: read-out: IZ
[2] = tested on: Escherichia coli; test: Antibacterial activity against Escherichia coli at 75 ug/ml after 18 to 24 hrs by disc diffusion method; type: functional; conditions: read-out: IZ
[3] = tested on: Staphylococcus aureus; test: Antibacterial activity against Staphylococcus aureus at 75 ug/ml after 18 to 24 hrs by disc diffusion method; type: functional; conditions: for zone of inhibition at 75 µg/mL: read-out: IZ
[4] = tested on: Escherichia coli; test: Antibacterial activity against Escherichia coli at 50 ug/ml after 18 to 24 hrs by disc diffusion method; type: functional; conditions: read-out: IZ
[5] = Selectivity index, ratio of IC50 for African green monkey Vero cells to MIC for Mycobacterium tuberculosis H37Rv ATCC 27294; type: toxicity, cell-based
[6] = tested on: Pseudomonas aeruginosa; test: Antibacterial activity against Pseudomonas aeruginosa at 50 ug/ml after 18 to 24 hrs by disc diffusion method; type: functional; conditions: read-out: IZ
[7] = tested on: Pseudomonas aeruginosa; test: Antibacterial activity against Pseudomonas aeruginosa at 75 ug/ml after 18 to 24 hrs by disc diffusion method; type: functional; conditions: read-out: IZ
[8] = tested on: Mycobacterium tuberculosis; test: Antimycobacterial activity against Mycobacterium tuberculosis H37Rv ATCC 27294 after 5 days by microplate alamar blue assay; type: functional; conditions: H37Rv ATCC 27294, 120 h
[9] = tested on: Vero; test: Cytotoxicity against African green monkey Vero cells after 72 hrs by MTT assay; type: cell-based; conditions: Chlorocebus sabaeus

Row | Structure (SMILES) | zone of inhibition at 50 µg/mL [1] [mm] | zone of inhibition at 75 µg/mL [2] [mm] | zone of inhibition at 75 µg/mL [3] [mm] | zone of inhibition at 50 µg/mL [4] [mm] | selectivity ratio [5] | zone of inhibition at 50 µg/mL [6] [mm] | zone of inhibition at 75 µg/mL [7] [mm] | MIC [8] [µg/mL] | IC50 [9] [µg/mL] | inhibition zone (IZ) [1] | inhibition zone (IZ) [3]
1 | N=c1sc(-c2ccc(Cl)cc2)nn1CC(=O)N1c2ccccc2Sc2ccc(Cl)cc21 | 15 | 15 | 17 | 12 | 473 | 15 | 20 | 1.6 (≈ 3.3 µM) | 757 (≈ 1560 µM) |  | 
2 | COc1ccc(-c2nn(CC(=O)N3c4ccccc4Sc4ccc(Cl)cc43)c(=N)s2)cc1OC | 6 | 8 | 8 | 4 |  | 4 | 6 | 50 (≈ 97.8 µM) |  |  | 
3 | CN[C@@H]1[C@H](O[C@H]2[C@H](O[C@H]3[C@H](O)[C@@H](O)[C@H](N=C(N)N)[C@@H](O)[C@@H]3N=C(N)N)O[C@@H](C)[C@]2(O)C=O)O[C@@H](CO)[C@H](O)[C@H]1O [STREPTOMYCIN] |  |  |  |  |  |  |  | 6.25 (≈ 10.7 µM) |  |  | 
4 | N=c1sc(-c2cccs2)nn1CC(=O)N1c2ccccc2Sc2ccccc21 |  | 7 |  | 6 |  | 2 | 4 | 50 (≈ 118 µM) |  | inactive | inactive
5 | CCCc1nn(CC(=O)N2c3ccccc3Sc3ccccc32)c(=N)s1 | 12 | 14 | 16 | 11 | 157 | 11 | 15 | 1.6 (≈ 4.18 µM) | 252 (≈ 658 µM) |  | 
6 | CC[C@@H](CO)NCCN[C@@H](CC)CO [ETHAMBUTOL] |  |  |  |  |  |  |  | 3.12 (≈ 15.3 µM) |  |  | 
7 | COc1ccc(-c2nn(CC(=O)N3c4ccccc4Sc4ccc(C(F)(F)F)cc43)c(=N)s2)cc1OC | 4 | 10 | 7 | 8 |  | 6 | 9 | 50 (≈ 91.8 µM) |  |  | 
8 | N=c1sc(-c2ccc(F)cc2)nn1CC(=O)N1c2ccccc2Sc2ccc(C(F)(F)F)cc21 | 7 | 11 | 10 | 9 | 458 | 7 | 13 | 1.6 (≈ 3.18 µM) | 733 (≈ 1460 µM) |  | 
9 | NNC(=O)c1ccncc1 [ISONIAZID] |  |  |  |  |  |  |  | 0.1 (≈ 0.729 µM) |  |  | 
10 | N=c1sc(-c2ccc(F)cc2)nn1CC(=O)N1c2ccccc2Sc2ccccc21 | 5 | 11 | 8 | 8 | 79.1 | 8 | 12 | 3.12 (≈ 7.19 µM) | 247 (≈ 568 µM) |  | 
11 | N=c1sc(-c2cccs2)nn1CC(=O)N1c2ccccc2Sc2ccc(C(F)(F)F)cc21 | 5 | 10 | 8 | 8 |  | 8 | 12 | 50 (≈ 102 µM) |  |  | 
12 | Cc1ccc(-c2nn(CC(=O)N3c4ccccc4Sc4ccc(Cl)cc43)c(=N)s2)cc1 | 10 | 9 | 12 | 7 |  | 4 | 7 | 50 (≈ 108 µM) |  |  | 
13 | O=C(O)c1cn(C2CC2)c2cc(N3CCNCC3)c(F)cc2c1=O [CIPROFLOXACIN] | 21 | 32 | 26 | 27 |  | 18 | 21 | 3.12 (≈ 9.43 µM) |  |  | 
14 | Cc1nn(CC(=O)N2c3ccccc3Sc3ccccc32)c(=N)s1 | 22 | 25 | 26 | 20 | 271 | 20 | 25 | 1.6 (≈ 4.51 µM) | 433 (≈ 1220 µM) |  | 
15 | Cc1nn(CC(=O)N2c3ccccc3Sc3ccc(C(F)(F)F)cc32)c(=N)s1 | 14 | 20 | 17 | 15 | 219 | 12 | 15 | 1.6 (≈ 3.79 µM) | 350 (≈ 828 µM) |  | 
16 | N=c1sc(-c2ccc(Cl)cc2)nn1CC(=O)N1c2ccccc2Sc2ccccc21 | 7 | 10 | 9 | 8 |  | 7 | 10 | 50 (≈ 111 µM) |  |  | 
17 | Cc1ccc(-c2nn(CC(=O)N3c4ccccc4Sc4ccccc43)c(=N)s2)cc1 | 16 | 27 | 21 | 24 | 269 | 9 | 11 | 0.8 (≈ 1.86 µM) | 215 (≈ 499 µM) |  | 
18 | CCCc1nn(CC(=O)N2c3ccccc3Sc3ccc(Cl)cc32)c(=N)s1 | 8 | 12 | 10 | 8 | 306 | 10 | 12 | 0.8 (≈ 1.92 µM) | 245 (≈ 588 µM) |  | 
19 | N=c1sc(-c2ccc(Cl)cc2)nn1CC(=O)N1c2ccccc2Sc2ccc(C(F)(F)F)cc21 | 11 | 12 | 13 | 11 |  | 9 | 14 | 25 (≈ 48.2 µM) |  |  | 
20 | N=c1sc(-c2ccc(F)cc2)nn1CC(=O)N1c2ccccc2Sc2ccc(Cl)cc21 | 5 | 12 | 9 | 7 | 149 | 7 | 10 | 3.12 (≈ 6.66 µM) | 465 (≈ 992 µM) |  | 
21 | N=c1sc(-c2cccs2)nn1CC(=O)N1c2ccccc2Sc2ccc(Cl)cc21 |  | 8 |  | 4 |  | 7 | 11 | 50 (≈ 109 µM) |  | inactive | inactive
22 | Cc1nn(CC(=O)N2c3ccccc3Sc3ccc(Cl)cc32)c(=N)s1 | 10 | 16 | 13 | 14 | 294 | 9 | 13 | 1.6 (≈ 4.11 µM) | 470 (≈ 1210 µM) |  | 
23 | CCCc1nn(CC(=O)N2c3ccccc3Sc3ccc(C(F)(F)F)cc32)c(=N)s1 | 7 | 9 | 11 | 6 | 76.4 | 3 | 7 | 3.12 (≈ 6.94 µM) | 238 (≈ 529 µM) |  | 
24 | Cc1ccc(-c2nn(CC(=O)N3c4ccccc4Sc4ccc(C(F)(F)F)cc43)c(=N)s2)cc1 | 9 | 13 | 11 | 11 |  | 6 | 9 | 50 (≈ 100 µM) |  |  | 
25 | COc1ccc(-c2nn(CC(=O)N3c4ccccc4Sc4ccccc43)c(=N)s2)cc1OC | 18 | 16 | 21 | 13 |  | 20 | 25 | 12.5 (≈ 26.2 µM) |  |  | 
